Biological target: T1, hCCR2b (Homo sapiens, UniProt P41597)
T1 sequence (P41597 1-360 isoform P41597-2): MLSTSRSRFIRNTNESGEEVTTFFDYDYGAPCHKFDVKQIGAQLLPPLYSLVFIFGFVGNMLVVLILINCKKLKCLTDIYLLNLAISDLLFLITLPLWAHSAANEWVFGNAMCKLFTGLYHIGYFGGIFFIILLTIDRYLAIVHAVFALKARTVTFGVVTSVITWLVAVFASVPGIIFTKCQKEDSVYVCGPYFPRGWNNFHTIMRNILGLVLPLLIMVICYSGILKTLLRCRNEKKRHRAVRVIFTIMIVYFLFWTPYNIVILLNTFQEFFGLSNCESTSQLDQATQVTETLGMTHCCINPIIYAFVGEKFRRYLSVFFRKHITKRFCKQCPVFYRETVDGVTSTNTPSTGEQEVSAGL
Assay: CCR2 binding assay ([125I]MCP-1, SPA, CHO cell membranes)
Design: expressed in transfected cells; host or cells: CHO cells (membrane preparation)
Conditions: membranes from CHO cells expressing hCCR2b, 50 pM [125I]MCP-1; read-out: Binding hCCR2 (Ki)
Experimental: Membranes were prepared from CHO cells expressing mCCR2b or hCCR2b for use in ligand binding studies. Cells were suspended in 50mM Tris-HCL, pH 7.4, 2 mM EDTA, 250 mM Sucrose and 1x Complete EDTA-free protease inhibitor cocktail (Roche) (Buffer A), and disrupted at 4°C by N2 decompression using a cell disruption bomb (Parr Instrument). Following centrifugation at 200 RCF for 10 min at 4°C, the supernatant was suspended in buffer A and centrifuged again at 19000 RPM (RCSC rotor SS34 code 05 Sorvall Instruments DUPONT) for 90 min at 4°C. The pellet was then suspended in 10 mM HEPES, pH 7.4, 1 mM EDTA, 250 mM Sucrose, and 1x Complete EDTA-free protease inhibitor cocktail (Buffer B) and homogenized using a potter. Membranes were flash frozen in liquid N2 and stored at -80°C. [125I] Monocyte Chemoattractant Protein -1 (MCP-1) (25µCi; Perkin Elmer) was added to test compounds in DMSO (1% final). Membranes and WGA SPA beads (GE Healthcare) were added to give a final volume of 100 µl in 96-well plates with assay concentrations of 50 pM or 100 pM [125I]Monocyte Chemoattractant Protein -1 (respectively for hCCR2b or mCCR2b), 50 mM HEPES, pH 7.4, 5 mM MgCl2, 1 mM CaCl2, 0.1% BSA, 1-5 µg/well of membranes and 100 µg/well of WGA SPA beads. Binding was performed for 90 min at RT with strong agitation of speed 5 (Heidolph Titramax 100 SCITEC) and bound radioactivity was measured on a PerkinElmer 1450 MicroBeta counter. Specific binding was calculated by subtracting remaining radioactivity in the presence of 1000-fold excess of unlabeled compound. Binding data were analyzed using the Genedata Screener® software.

| SMILES | Ki [nM] |
| --- | --- |
| CC1=C(C(=O)N2CCN(c3cccc(C(F)(F)F)c3)CC2)C2(CCN(CCc3ccc(Cl)cc3)CC2)OC1=O [Compound 13, 8-[2-(4-chlorophenyl)ethyl]-3-methyl-4-({4-[3-(trifluoromethyl)phenyl]piperazin-1-yl}carbonyl)-1-oxa-8-azaspiro[4.5]dec-3-en-2-one] | < 50 |
| CC1=C(C(=O)N2CCN(c3cccc(C(F)(F)F)c3)CC2)C2(CCN(CCc3ccccc3Cl)CC2)OC1=O [Compound 14, 8-[2-(2-chlorophenyl)ethyl]-3-methyl-4-({4-[3-(trifluoromethyl)phenyl]piperazin-1-yl}carbonyl)-1-oxa-8-azaspiro[4.5]dec-3-en-2-one] | 100 to 500 |
| CC1=C(C(=O)N2CCN(c3cccc(C(F)(F)F)c3)CC2)C2(CCN(CCc3cccc(Cl)c3)CC2)OC1=O [Compound 15, 8-[2-(3-chlorophenyl)ethyl]-3-methyl-4-({4-[3-(trifluoromethyl)phenyl]piperazin-1-yl}carbonyl)-1-oxa-8-azaspiro[4.5]dec-3-en-2-one] | < 50 |
| COCCN1CCC2(CC1)OC(=O)C(C)=C2C(=O)N1CCc2ccc(C(F)(F)F)cc2C1 [Compound 16, 8-(2-methoxyethyl)-3-methyl-4-{[7-(trifluoromethyl)-3,4-dihydroisoquinolin-2(1H)-yl]carbonyl}-1-oxa-8-azaspiro[4.5]dec-3-en-2-one] | < 50 |
| CC1=C(C(=O)N2CCc3ccc(C(F)(F)F)cc3C2)C2(CCN(CCF)CC2)OC1=O [Compound 17, 8-(2-fluoroethyl)-3-methyl-4-{[7-(trifluoromethyl)-3,4-dihydroisoquinolin-2(1H)-yl]carbonyl}-1-oxa-8-azaspiro[4.5]dec-3-en-2-one] | < 50 |
| COCCCN1CCC2(CC1)OC(=O)C(C)=C2C(=O)N1CCc2ccc(C(F)(F)F)cc2C1 [Compound 18, 8-(3-methoxypropyl)-3-methyl-4-{[7-(trifluoromethyl)-3,4-dihydroisoquinolin-2(1H)-yl]carbonyl}-1-oxa-8-azaspiro[4.5]dec-3-en-2-one] | < 50 |
| CC1=C(C(=O)N2CCc3ccc(C(F)(F)F)cc3C2)C2(CCN(CCN3CCOCC3)CC2)OC1=O [Compound 19, 3-methyl-8-(2-morpholin-4-ylethyl)-4-{[7-(trifluoromethyl)-3,4-dihydroisoquinolin-2(1H)-yl]carbonyl}-1-oxa-8-azaspiro[4.5]dec-3-en-2-one] | < 50 |
| CC1=C(C(=O)N2CCc3ccc(C(F)(F)F)cc3C2)C2(CCN(CCO)CC2)OC1=O [Compound 20, 8-(2-hydroxyethyl)-3-methyl-4-{[7-(trifluoromethyl)-3,4-dihydroisoquinolin-2(1H)-yl]carbonyl}-1-oxa-8-azaspiro[4.5]dec-3-en-2-one] | < 50 |
| CC1=C(C(=O)N2CCN(c3cccc(C(F)(F)F)c3)CC2)C2(CCN(C3CCOCC3)CC2)OC1=O [Compound 21, 3-methyl-8-(tetrahydro-2H-pyran-4-yl)-4-({4-[3-(trifluoromethyl)phenyl]piperazin-1-yl}carbonyl)-1-oxa-8-azaspiro[4.5]dec-3-en-2-one] | < 50 |
| CC1=C(C(=O)N2CCN(c3cccc(C(F)(F)F)c3)CC2)C2(CCN(CC3CCOC3)CC2)OC1=O (stereo not drawn) [Compound 22, 3-methyl-8-(tetrahydrofuran-3-ylmethyl)-4-({4-[3-(trifluoromethyl)phenyl]piperazin-1-yl}carbonyl)-1-oxa-8-azaspiro[4.5]dec-3-en-2-one] | < 50 |

Second part, the compound after the results:

| Ki [nM] | SMILES |
| --- | --- |
| < 50 | CC1=C(C(=O)N2CCN(c3cccc(C(F)(F)F)c3)CC2)C2(CCN(C3CCCOC3)CC2)OC1=O (stereo not drawn) [Compound 23] |
| 50 to 100 | CC1=C(C(=O)N2CCN(c3cccc(C(F)(F)F)c3)CC2)C2(CCN(C3CCC(C(=O)O)CC3)CC2)OC1=O (stereo not drawn) [Compound 24, 4-[3-methyl-2-oxo-4-({4-[3-(trifluoromethyl)phenyl]piperazin-1-yl}carbonyl)-1-oxa-8-azaspiro[4.5]dec-3-en-8-yl]cyclohexanecarboxylic acid] |
| < 50 | COc1ccc(C2(O)CCC(N3CCC4(CC3)OC(=O)C(C)=C4C(=O)N3CCc4ccc(C(F)(F)F)cc4C3)CC2)cn1 (stereo not drawn) [Compound 25, 8-[4-hydroxy-4-(6-methoxypyridin-3-yl)cyclohexyl]-3-methyl-4-{[7-(trifluoromethyl)-3,4-dihydroisoquinolin-2(1H)-yl]carbonyl}-1-oxa-8-azaspiro[4.5]dec-3-en-2-one] |
| < 50 | CC1=C(C(=O)N2CCc3ccc(C(F)(F)F)cc3C2)C2(CCN(C)CC2)OC1=O [Compound 27, 3,8-dimethyl-4-{[7-(trifluoromethyl)-3,4-dihydroisoquinolin-2(1H)-yl]carbonyl}-1-oxa-8-azaspiro[4.5]dec-3-en-2-one] |
| < 50 | CCCN1CCC2(CC1)OC(=O)C(C)=C2C(=O)N1CCc2ccc(C(F)(F)F)cc2C1 [Compound 28, 3-methyl-8-propyl-4-{[7-(trifluoromethyl)-3,4-dihydroisoquinolin-2(1H)-yl]carbonyl}-1-oxa-8-azaspiro[4.5]dec-3-en-2-one] |
| < 50 | CC1=C(C(=O)N2CCc3ccc(C(F)(F)F)cc3C2)C2(CCN(C3CCCCC3)CC2)OC1=O [Compound 29, 8-cyclohexyl-3-methyl-4-{[7-(trifluoromethyl)-3,4-dihydroisoquinolin-2(1H)-yl]carbonyl}-1-oxa-8-azaspiro[4.5]dec-3-en-2-one] |
| < 50 | CC1=C(C(=O)N2CCc3ccc(C(F)(F)F)cc3C2)C2(CCN(C3CCCC3)CC2)OC1=O [Compound 30, 8-cyclopentyl-3-methyl-4-{[7-(trifluoromethyl)-3,4-dihydroisoquinolin-2(1H)-yl]carbonyl}-1-oxa-8-azaspiro[4.5]dec-3-en-2-one] |
| < 50 | CC1=C(C(=O)N2CCc3ccc(C(F)(F)F)cc3C2)C2(CCN(C3CCC(O)CC3)CC2)OC1=O (stereo not drawn) [Compound 31, 8-(4-hydroxycyclohexyl)-3-methyl-4-{[7-(trifluoromethyl)-3,4-dihydroisoquinolin-2(1H)-yl]carbonyl}-1-oxa-8-azaspiro[4.5]dec-3-en-2-one] |
| 50 to 100 | CC1=C(C(=O)N2CCc3ccc(C(F)(F)F)cc3C2)C2(CCN(C3COC3)CC2)OC1=O [Compound 32, 3-methyl-8-oxetan-3-yl-4-{[7-(trifluoromethyl)-3,4-dihydroisoquinolin-2(1H)-yl]carbonyl}-1-oxa-8-azaspiro[4.5]dec-3-en-2-one] |
| < 50 | CC1=C(C(=O)N2CCc3ccc(C(F)(F)F)cc3C2)C2(CCN(CC3CCOC3)CC2)OC1=O (stereo not drawn) [Compound 33, 3-methyl-8-(tetrahydrofuran-3-ylmethyl)-4-{[7-(trifluoromethyl)-3,4-dihydroisoquinolin-2(1H)-yl]carbonyl}-1-oxa-8-azaspiro[4.5]dec-3-en-2-one] |
| < 50 | CC1=C(C(=O)N2CCc3ccc(C(F)(F)F)cc3C2)C2(CCN(C3CCOC3)CC2)OC1=O (stereo not drawn) [Compound 34, 3-methyl-8-(tetrahydrofuran-3-yl)-4-{[7-(trifluoromethyl)-3,4-dihydroisoquinolin-2(H)-yl]carbonyl}-1-oxa-8-azaspiro[4.5]dec-3-en-2-one] |
| < 50 | CC1=C(C(=O)N2CCc3ccc(C(F)(F)F)cc3C2)C2(CCN(C3CCOC(C)(C)C3)CC2)OC1=O (stereo not drawn) [Compound 35, 8-(2,2-dimethyltetrahydro-2H-pyran-4-yl)-3-methyl-4-{[7-(trifluoromethyl)-3,4-dihydroisoquinolin-2(1H)-yl]carbonyl}-1-oxa-8-azaspiro[4.5]dec-3-en-2-one] |
| < 50 | CC1=C(C(=O)N2CCc3ccc(C(F)(F)F)cc3C2)C2(CCN(C3CCOC(C)C3)CC2)OC1=O (stereo not drawn) [Compound 36, 3-methyl-8-(2-methyltetrahydro-2H-pyran-4-yl)-4-{[7-(trifluoromethyl)-3,4-dihydroisoquinolin-2(1H)-yl]carbonyl}-1-oxa-8-azaspiro[4.5]dec-3-en-2-one] |
| 50 to 100 | CC1=C(C(=O)N2CCc3ccc(C(F)(F)F)cc3C2)C2(CCN(C3CCS(=O)(=O)CC3)CC2)OC1=O [Compound 37, 8-(1,1-dioxidotetrahydro-2H-thiopyran-4-yl)-3-methyl-4-{[7-(trifluoromethyl)-3,4-dihydroisoquinolin-2(1H)-yl]carbonyl}-1-oxa-8-azaspiro[4.5]dec-3-en-2-one] |
